Source: PubChem BioAssay (NCI)
“And” between values parts separate entries of the source, which are not always exact repeats. Equal entries are not always repeated.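 Briefly, cells in 96-well plates were exposed to five compound concentrations for 48 h, and endpoints were estimated by linear interpolation. GI50 is the concentration that inhibits growth by half. TGI: concentration producing complete growth inhibition.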

Experiments:
Assay in all cases: NCI-60 cell line screen, 48 h
EKVX NSCLC = test system: EKVX NSCLC
LOX IMVI melanoma = test system: LOX IMVI melanoma
MALME-3M melanoma = test system: MALME-3M melanoma
NCI-H522 lung = test system: NCI-H522 lung
SF-539 CNS = test system: SF-539 CNS
SK-OV-3 ovarian = test system: SK-OV-3 ovarian
SW-620 colon = test system: SW-620 colon
TK-10 renal = test system: TK-10 renal
UACC-257 melanoma = test system: UACC-257 melanoma
MDA-MB-435 = test system: MDA-MB-435

Structure (SMILES)	TGI (EKVX NSCLC)	TGI (LOX IMVI melanoma)	TGI (MALME-3M melanoma)	TGI (NCI-H522 lung)	TGI (SF-539 CNS)	TGI (SK-OV-3 ovarian)	TGI (SW-620 colon)	TGI (TK-10 renal)	TGI (UACC-257 melanoma)	GI50 (EKVX NSCLC)	GI50 (LOX IMVI melanoma)	GI50 (MALME-3M melanoma)	GI50 (NCI-H522 lung)	GI50 (SF-539 CNS)	GI50 (SK-OV-3 ovarian)	GI50 (SW-620 colon)	GI50 (TK-10 renal)	GI50 (MDA-MB-435)	TGI (MDA-MB-435)	GI50 (UACC-257 melanoma)
COc1ccc(OC)c(/C=C/NC=O)c1	> 100 µM	> 100 µM	> 100 µM	> 100 µM	> 100 µM	> 100 µM	> 100 µM	> 100 µM	> 100 µM	–	–	–	–	–	–	–	–	–	–	–
CNC=O.[O]=[Ge].[O]=[Ge].[O]=[Ge].[O]=[Ge][OH].[O]=[Ge][OH]	> 100 µM	> 100 µM	> 100 µM	–	> 100 µM	–	> 100 µM	> 100 µM	> 100 µM	–	–	–	–	–	–	–	–	–	–	–
CSc1ccc(/C=C2/C[N+](C)(C)C/C(=C/c3ccc(SC)cc3)C2=O)cc1	35.1 µM	–	27.5 µM	21.3 µM	34 µM	–	28.1 µM	> 100 µM	37.8 µM	–	–	–	–	–	–	–	–	–	–	–
COC(=O)C1=C(c2ccc3c(c2)OCO3)O[C@H](c2ccc3c(c2)OCO3)[C@H]1COC(C)=O	> 100 µM	> 100 µM	> 100 µM	–	> 100 µM	> 100 µM	> 100 µM	> 100 µM	> 100 µM	–	–	–	–	–	–	–	–	–	–	–
CN(C)C(=S)/N=c1\ss/c(=N\C(=S)N(C)C)n1-c1ccc2c(c1)OCO2	> 100 µM	> 100 µM	> 100 µM	> 100 µM	> 100 µM	> 100 µM	> 100 µM	> 100 µM	> 100 µM	–	–	–	–	–	–	–	–	–	–	–
Cc1cccc(N2C(=O)C(Cl)=C(Cl)C2=O)c1	> 100 µM	> 100 µM	> 59.4 µM	22.7 µM	> 100 µM	> 100 µM	> 60.7 µM	> 100 µM	> 100 µM	–	–	–	–	–	–	–	–	–	–	–
O=C(/C=C/c1ccccc1Cl)c1ccccc1Cl	44.4 µM	–	69.4 µM	38.1 µM	36.7 µM	> 100 µM	26.2 µM	> 100 µM	60.4 µM	–	–	–	–	–	–	–	–	–	–	–
CSc1nc(NC2OC(COC(C)=O)C(OC(C)=O)C(OC(C)=O)C2OC(C)=O)c2c(OC(C)=O)c(C)c(=O)oc2n1 (stereo unspecified)	> 100 µM	> 100 µM	> 100 µM	–	> 100 µM	> 100 µM	> 100 µM	> 100 µM	> 100 µM	–	–	–	–	–	–	–	–	–	–	–
CCc1cccc(C)c1NC(C)=O	> 100 µM	–	> 100 µM	–	> 100 µM	> 100 µM	> 100 µM	> 100 µM	> 100 µM	–	–	–	–	–	–	–	–	–	–	–
Cc1cccc(C(C)(C)C)c1NC(=O)CCc1n[nH]c(=S)o1	> 100 µM	–	> 100 µM	> 100 µM	> 100 µM	> 100 µM	34.1 µM	> 100 µM	> 100 µM	–	–	–	–	–	–	–	–	–	–	–
O=S(O)CCCCSSCCCCSSCCCCS(=O)O	66.3 µM	> 100 µM	84.2 µM	35.6 µM	> 100 µM	> 100 µM	> 100 µM	91.4 µM	> 100 µM	–	–	–	–	–	–	–	–	–	–	–
O=C(NC1CCCCCC1)C1C(=O)N(C2CCCCCC2)C(=O)/C1=N\O (stereo unspecified)	> 100 µM	> 100 µM	68.5 µM	45 µM	61.3 µM	> 100 µM	> 100 µM	94.3 µM	> 100 µM	–	–	–	–	–	–	–	–	–	–	–
C#CC[C@]12CC(=O)CC[C@H]1CC(=O)C2	–	–	> 100 µM	> 100 µM	> 100 µM	> 100 µM	> 100 µM	> 100 µM	> 100 µM	–	–	–	–	–	–	–	–	–	–	–
COc1ccc(C2CC(=O)c3c(O)c(OC)c(OC)c(OC)c3O2)c(O)c1 (stereo unspecified)	88.8 µM	19.2 µM	26.7 µM	0.188 µM	9.39 µM	24.8 µM	21.4 µM	49 µM	–	0.232 µM	0.432 µM	13.1 µM	0.0326 µM	0.14 µM	0.308 µM	0.0484 µM	4.96 µM	–	–	–
COc1cc(-c2c(C#N)c(N)n3c(nc4ccccc43)c2C#N)cc(Br)c1OC	–	> 100 µM	–	> 100 µM	> 100 µM	> 100 µM	–	–	> 100 µM	–	> 100 µM	–	79.7 µM	> 100 µM	> 100 µM	–	–	> 100 µM	> 100 µM	> 100 µM
COC(=O)c1cc2c(c(C(=O)OC)c1O)C(=O)C=CC2=O	> 41.4 µM	> 56.9 µM	> 58.4 µM	9.1 µM and > 26.9 µM	> 56.1 µM	> 100 µM	> 21.3 µM	> 54.6 µM	> 48.7 µM	> 9.1 µM	> 9.1 µM	> 9.1 µM	3.01 µM	> 9.1 µM	> 9.1 µM	> 9.1 µM	> 9.1 µM	–	–	> 9.1 µM
